The nature of data set [1]: Physico-chemical characteristics (Table 1). The class given is physicochemical. Details: Critical micellar concentration (CMC): unit not given here. The following applies: for chromatographic logP: c18 hplc.
The nature of data set [2]: Effect on bile flow and bile lipid secretion. The class given is in vivo, rat. The note with it: for SMAB (maximum secretion) / SMPL (maximum bile lipid secretion) / SMVo = maximum bile flow / SMXOL (maximum bile lipid secretion): intravenous, 6 μmoles/min/kg during 1 hour (stated for TOL-UDCA). The method, then: (§1) Trans 3α,7β-dihydroxy-5β-24-cholen-27-oic acid (TOL-UDCA) was studied compared with ursodeoxycholic acid and the glycine and taurine conjugated thereof also in the following pharmacological tests:
effects on the secretion of bile, bile acids, cholesterol and phospholipids.
(§2) TOL-UDCA was administered to rat by intravenous and intraduodenal routes at a dose of 6 μmoles/min/kg during 1 hour.
SMVo = maximum bile flow
SM = maximum bile lipid secretion

Data set [3] in a line: Hepatic absorption, metabolism and biliary secretion, intravenous. The following applies: rat. The data set is classed as in vivo. The method, then:
as §1
hepatic and intestinal metabolism (in vivo and in vitro)
hepatic and intestinal absorption
as §2

The mark [4] stands for this setting: read-out: Retention times with C18-HPLC (K') (converted).

Results on four compounds are retold here after US5096898A, “Bile acid unsaturated derivatives and pharmaceutical compositions containing them” (Giuliani S.p.A., priority 1990, dated 1992).

Converted amounts (≈) assume the structure as drawn. “Also recorded” adds a separate entry of the source. Where two headings read alike, the source gives them in different places.

The term pKa denotes the negative logarithm of the acid dissociation constant. As usually defined, the solubility is the concentration that dissolves in the medium under given conditions. For the compound `C[C@H](CCC(=O)NCC(=O)O)[C@H]1CC[C@H]2[C@@H]3[C@@H](O)C[C@@H]4C[C@H](O)CC[C@]4(C)[C@H]3CC[C@]12C` [G-UDCA], in data set [1], the “Critical micellar concentration (CMC)” value is 12, the pKa worked out at 3.9 and the concentration in solution (solubility) came to 3 µM (≈ 1.35 µg/mL). The chromatographic logP in data set [1] (setting [4]) was 0.0253. In data set [2], the “SMAB (maximum secretion)” value was 2,10 μmol/min/kg, the “SMPL (maximum bile lipid secretion)” value is listed as 0,39 μmol/min/kg, the “SMVo = maximum bile flow” value was 2.4 mL/h/kg and the “SMXOL (maximum bile lipid secretion)” value is recorded as 0,028 μmol/min/kg.
As for `C[C@H](CCC(=O)NCCS(=O)(=O)O)[C@H]1CC[C@H]2[C@@H]3[C@@H](O)C[C@@H]4C[C@H](O)CC[C@]4(C)[C@H]3CC[C@]12C` [T-UDCA], the “Critical micellar concentration (CMC)” value in data set [1] was found to be 8. Moreover, the chromatographic logP in data set [1] (setting [4]) is -0.00877. Moreover, the pKa in data set [1] (read-out: pKa) came out at 2. Besides, in data set [2], the “SMAB (maximum secretion)” value is recorded as 2,40 μmol/min/kg, the “SMPL (maximum bile lipid secretion)” value was 0,18 μmol/min/kg, the “SMVo = maximum bile flow” value was found to be 2.1 mL/h/kg and the “SMXOL (maximum bile lipid secretion)” value is on record as 0,014 μmol/min/kg.
For `C[C@H](CC/C=C/CC(=O)O)[C@H]1CC[C@H]2[C@@H]3[C@@H](O)C[C@@H]4C[C@H](O)CC[C@]4(C)[C@H]3CC[C@]12C` [TOL-UDCA, Trans-3α,7β-dihydroxy-5β-24-cholen-27-oic acid], the “kinetic of recovery in the bile” value in data set [3] (intravenous, 6 μmoles/min/kg during 1 hour) is reported as “recovered in the bile with a slow kinetic”. In addition, in data set [3] (in vivo), the “accumulation in the hepatic cells” value is listed as “accumulates in the hepatic cells”, the “disappearance from the bile” value is recorded as “disappears from the bile with a slow kinetic” and the “presence in bile 2 hours after end of infusion” value is on record as “a noticeable amount of this bile acid is still present 2 hours after”. In addition, in data set [1], the “Critical micellar concentration (CMC)” value came to 5, the pKa is 5.02, the concentration in solution (solubility) was 10 µM (≈ 4.33 µg/mL) and the chromatographic logP is 0.96. Also, in data set [2] (compared with UDCA natural analogs and conjugated forms), the “bile flow / choleretic effect (in words)” value is “increases bile flow and this effect is stronger than the one of UDCA natural analogs and of the conjugated forms thereof; also recorded: strong choleretic effect after intravenous or intraduodenal administrations, which effect is higher than that of UDCA”. In data set [2], the “SMAB (maximum secretion)” value is given as 1,02 μmol/min/kg, the “SMPL (maximum bile lipid secretion)” value was 0,12 μmol/min/kg, the “SMVo = maximum bile flow” value turned out to be 5.4 mL/h/kg and the “SMXOL (maximum bile lipid secretion)” value is given as 0,020 μmol/min/kg.
Consider `C[C@H](CCC(=O)O)[C@H]1CC[C@H]2[C@@H]3[C@@H](O)C[C@@H]4C[C@H](O)CC[C@]4(C)[C@H]3CC[C@]12C` [UDCA, ursodeoxycholic acid], for which, in data set [1], the “Critical micellar concentration (CMC)” value is 19. For the same compound, in data set [1] (setting [4]), the chromatographic logP was 0.563. Besides, in data set [1] (read-out: Solubility), the solubility was found to be 9 µM (≈ 3.53 µg/mL). Also, the pKa in data set [1] (read-out: pKa) is 5.06. In data set [2], the “SMAB (maximum secretion)” value was 3,02 μmol/min/kg, the “SMPL (maximum bile lipid secretion)” value was 0,22 μmol/min/kg, the “SMVo = maximum bile flow” value was 3.6 mL/h/kg and the “SMXOL (maximum bile lipid secretion)” value is on record as 0,022 μmol/min/kg.
